Results as given in US20260166039A1 (SCHRÖDINGER, INC., priority 2022, published 2026).

Biological target: T1, Wee1 kinase domain (Homo sapiens, UniProt P30291)
T1 construct: Wee1 kinase domain was purchased from Carna (catalog #05-177); purchased Carna 05-177
Assay: Wee1 Kinase Biochemical Assay (ADP-Glo)
Conditions: Wee1 kinase domain, 15 uM ATP, ADP-Glo
Procedure: Wee1 Kinase Biochemical Assay Protocol
Wee1 kinase domain was purchased from Carna (catalog #05-177). Wee1 kinase activity was determined with Poly(Lys,Tyr 4:1) hydrobromide as a substrate (Sigma-Aldrich) and by measuring ADP production using the ADP-Glo Kinase Assay kit (Promega) following the manufacturer's instructions. The kinase reaction was performed using the following conditions:
Buffer: 40 mM Tris-HCl, 20 mM magnesium chloride, supplemented with 0.1 mg/mL bovine serum albumin and 2 mM DTT. The final reaction mix contained 1 nM Wee1 enzyme, 15 uM ATP, and 2 ng/mL Poly(Lys,Tyr 4:1) hydrobromide substrate. The reaction time was 4 hours at 25° C.
The ADP-Glo signal was measured using the Envision plate reader and the percentage inhibition of kinase activity calculated for each inhibitor tested. Percent inhibition of Wee1 kinase activity was calculated based on the following formula.
[formula] • SSample: the signal of compounds • SHigh Ctrl: the signal of high control (DMSO) • SLow Ctrl: the signal of low control (positive control Wee1 inhibitor at saturating concentration)

T1 sequence (P30291 299-569 limits assumed): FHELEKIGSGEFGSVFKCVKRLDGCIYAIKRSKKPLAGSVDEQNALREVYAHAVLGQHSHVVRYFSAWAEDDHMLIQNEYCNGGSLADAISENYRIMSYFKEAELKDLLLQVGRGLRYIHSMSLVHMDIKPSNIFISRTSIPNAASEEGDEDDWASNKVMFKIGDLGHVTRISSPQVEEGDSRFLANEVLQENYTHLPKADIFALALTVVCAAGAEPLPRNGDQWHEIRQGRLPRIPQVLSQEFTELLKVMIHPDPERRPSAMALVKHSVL

| IC50 [nM] | SMILES |
| --- | --- |
| 10 to 100 | CNCc1cccc(N2c3nc(Nc4ccc(N5CCCCC5)cc4)ncc3[C@]3(C)COC(C)(C)C[C@H]23)n1 (single isomer, unassigned) [Example 1] |
| 100 to 1000 | CN1CCN(c2ccc(Nc3ncc4c(n3)N(c3cccc(C(C)(C)O)n3)[C@H]3CC(C)(C)OC[C@@]43C)cc2)CC1 (single isomer, unassigned) [Example 3] |
| 10 to 100 | CNCc1cccc(N2c3nc(Nc4ccc(N5CCOCC5)cc4)ncc3[C@]3(C)COC(C)(C)C[C@H]23)n1 (single isomer, unassigned) [Example 6] |
| 10 to 100 | Cc1cc(Nc2ncc3c(n2)N(c2cccc(C(C)(C)O)n2)[C@H]2CC(C)(C)OC[C@@]32C)ccc1C1CCN(C)CC1 (single isomer, unassigned) [Example 7] |
| 10 to 100 | Cc1cc(Nc2ncc3c(n2)N(c2cccc(C(C)(C)O)n2)[C@H]2CC(C)(C)OC[C@@]32C)ccc1N1CCN(C)CC1 (single isomer, unassigned) [Example 10] |
| 100 to 1000 | CN1CCC(n2cc(Nc3ncc4c(n3)N(c3cccc(C(C)(C)O)n3)[C@H]3CC(C)(C)OC[C@@]43C)cn2)CC1 (single isomer, unassigned) [Example 12] |
| 10 to 100 | CNCc1cccc(N2c3nc(Nc4ccc(N5CCOCC5)c(Cl)c4)ncc3[C@]3(C)COC(C)(C)C[C@H]23)n1 (single isomer, unassigned) [Example 13] |
| 10 to 100 | CNCc1cccc(N2c3nc(Nc4ccc(N5CCC(F)(F)CC5)cc4)ncc3[C@]3(C)COC(C)(C)C[C@H]23)n1 (single isomer, unassigned) [Example 15] |
| 100 to 1000 | CNCc1cccc(N2c3nc(Nc4ccc(N5CCCOCC5)cc4)ncc3[C@]3(C)COC(C)(C)C[C@H]23)n1 (single isomer, unassigned) [Example 17] |
| 100 to 1000 | CNCc1cccc(N2c3nc(Nc4ccc(N5CCC(F)(F)C5)cc4)ncc3[C@]3(C)COC(C)(C)C[C@H]23)n1 (single isomer, unassigned) [Example 21] |
| 100 to 1000 | CNCc1cccc(N2c3nc(Nc4ccc(C(=O)N5CCOCC5)cc4)ncc3[C@]3(C)COC(C)(C)C[C@H]23)n1 (single isomer, unassigned) [Example 23] |
| 10 to 100 | CNCc1cccc(N2c3nc(Nc4ccc(N5CCOCC5)c(C)c4)ncc3[C@]3(C)COC(C)(C)C[C@H]23)n1 (single isomer, unassigned) [Example 25] |
| ≥ 1000 | CNCc1cccc(N2c3nc(Nc4ccc(N5C(=O)CC[C@@H]5C)cc4)ncc3[C@]3(C)COC(C)(C)C[C@H]23)n1 (single isomer, unassigned) [Example 27] |
| < 10 | CNCc1cccc(N2c3nc(Nc4ccc(N5C(=O)CC[C@@H]5C)cc4)ncc3[C@@]3(C)COC(C)(C)C[C@@H]23)n1 (single isomer, unassigned) [Example 28] |
| 10 to 100 | CNCc1cccc(N2c3nc(Nc4ccc(N5C(=O)CC[C@H]5C)cc4)ncc3[C@]3(C)COC(C)(C)C[C@H]23)n1 (single isomer, unassigned) [Example 29] |
| 100 to 1000 | CNCc1cccc(N2c3nc(Nc4ccc5c(c4)C(=O)N(C)C5)ncc3[C@]3(C)COC(C)(C)C[C@H]23)n1 (single isomer, unassigned) [Example 31] |
| 100 to 1000 | CNCc1cccc(N2c3nc(Nc4ccc(S(C)(=O)=O)cc4)ncc3[C@]3(C)COC(C)(C)C[C@H]23)n1 (single isomer, unassigned) [Example 33] |
| 10 to 100 | CNCc1cccc(N2c3nc(Nc4ccc(C5CCOCC5)cc4)ncc3[C@]3(C)COC(C)(C)C[C@H]23)n1 (single isomer, unassigned) [Example 36] |
| 100 to 1000 | CNCc1cccc(N2c3nc(Nc4ccc([C@@H]5CCOC5)cc4)ncc3[C@]3(C)COC(C)(C)C[C@H]23)n1 (single isomer, unassigned) [Example 37] |
| 100 to 1000 | CNCc1cccc(N2c3nc(Nc4ccc([C@H]5CCOC5)cc4)ncc3[C@]3(C)COC(C)(C)C[C@H]23)n1 (single isomer, unassigned) [Example 39] |
| 10 to 100 | CNCc1cccc(N2c3nc(Nc4ccc(N5C[C@H]6C[C@@H]5CO6)cc4)ncc3[C@]3(C)COC(C)(C)C[C@H]23)n1 (single isomer, unassigned) [Example 43] |
| 10 to 100 | CNCc1cccc(N2c3nc(Nc4ccccc4)ncc3[C@]3(C)COC(C)(C)C[C@H]23)n1 (single isomer, unassigned) [Example 46] |
| 100 to 1000 | CNCc1cccc(N2c3nc(Nc4cnn(C(C)(C)C)c4)ncc3[C@]3(C)COC(C)(C)C[C@H]23)n1 (single isomer, unassigned) [Example 47] |
| 10 to 100 | CNCc1cccc(N2c3nc(Nc4ccc(N5CCS(=N)(=O)CC5)cc4)ncc3[C@]3(C)COC(C)(C)C[C@H]23)n1 (single isomer, unassigned) [Example 50] |

| IC50 [nM] | SMILES |
| --- | --- |
| ≥ 1000 | CNCc1cccc(N2c3nc(Nc4ccc([C@@H]5CCC(=O)N5C)cc4)ncc3[C@]3(C)COC(C)(C)C[C@H]23)n1 (single isomer, unassigned) [Example 51] |
| ≥ 1000 | CNCc1cccc(N2c3nc(Nc4ccc([C@H]5CCC(=O)N5C)cc4)ncc3[C@]3(C)COC(C)(C)C[C@H]23)n1 (single isomer, unassigned) [Example 53] |
| ≥ 1000 | CNCc1cccc(N2c3nc(Nc4ccc(C5CCOCC5)nc4)ncc3[C@]3(C)COC(C)(C)C[C@H]23)n1 (single isomer, unassigned) [Example 55] |
| 10 to 100 | CNCc1cccc(N2c3nc(Nc4ccc([C@@H]5CCCO5)cc4)ncc3C3(C)COC(C)(C)C[C@H]23)n1 (single isomer, unassigned) [Example 57] |
| ≥ 1000 | CNCc1cccc(N2c3nc(Nc4ccc([C@H]5CCCO5)cc4)ncc3[C@]3(C)COC(C)(C)C[C@H]23)n1 (single isomer, unassigned) [Example 58] |
| < 10 | CNCc1cccc(N2c3nc(Nc4ccc([C@@H]5CCCO5)cc4)ncc3[C@@]3(C)COC(C)(C)C[C@@H]23)n1 (single isomer, unassigned) [Example 59] |
| < 10 | CNCc1cccc(N2c3nc(Nc4ccc([C@H]5CCCO5)cc4)ncc3[C@@]3(C)COC(C)(C)C[C@@H]23)n1 (single isomer, unassigned) [Example 60] |
| 10 to 100 | CNCc1cccc(N2c3nc(Nc4ccc([C@H]5CNC(=O)C5)cc4)ncc3[C@]3(C)COC(C)(C)C[C@H]23)n1 (single isomer, unassigned) [Example 62] |
| 10 to 100 | CNCc1cccc(N2c3nc(Nc4ccc([C@@H]5CNC(=O)C5)cc4)ncc3[C@]3(C)COC(C)(C)C[C@H]23)n1 (single isomer, unassigned) [Example 64] |
| 100 to 1000 | CN=S1(=O)CCN(c2ccc(Nc3ncc4c(n3)N(c3cccc(CNC)n3)[C@H]3CC(C)(C)OC[C@@]43C)cc2)CC1 (single isomer, unassigned) [Example 66] |
| 100 to 1000 | CNCc1cccc(N2c3nc(Nc4ccc([C@H]5CC(=O)N(C)C5)cc4)ncc3[C@]3(C)COC(C)(C)C[C@H]23)n1 (single isomer, unassigned) [Example 67] |
| 10 to 100 | CNCc1cccc(N2c3nc(Nc4ccc([C@@H]5CC(=O)N(C)C5)cc4)ncc3[C@]3(C)COC(C)(C)C[C@H]23)n1 (single isomer, unassigned) [Example 70] |
| 100 to 1000 | CNCc1cccc(N2c3nc(Nc4ccc(C5CCN(C)CC5)c(C)c4)ncc3[C@]3(C)COC(C)(C)C[C@H]23)n1 (single isomer, unassigned) [Example 71] |
| 10 to 100 | CNCc1cccc(N2c3nc(Nc4ccc(C(C)(C)C)cc4)ncc3[C@]3(C)COC(C)(C)C[C@H]23)n1 (single isomer, unassigned) [Example 74] |
| ≥ 1000 | CNCc1cccc(N2c3nc(Nc4ccc(C(C)(C)C(=O)N(C)C)cc4)ncc3[C@]3(C)COC(C)(C)C[C@H]23)n1 (single isomer, unassigned) [Example 75] |
| 100 to 1000 | CNCc1cccc(N2c3nc(Nc4ccc([C@]5(C)CCN(C)C5=O)cc4)ncc3[C@]3(C)COC(C)(C)C[C@H]23)n1 (single isomer, unassigned) [Example 77] |
| 100 to 1000 | CNCc1cccc(N2c3nc(Nc4ccc([C@@]5(C)CCN(C)C5=O)cc4)ncc3[C@]3(C)COC(C)(C)C[C@H]23)n1 (single isomer, unassigned) [Example 79] |
| ≥ 1000 | CNCc1cccc(N2c3nc(Nc4ccc(C5(C)COC5)cc4)ncc3[C@]3(C)COC(C)(C)C[C@H]23)n1 (single isomer, unassigned) [Example 83] |
| 100 to 1000 | CNCc1cccc(N2c3nc(Nc4ccc(N5C6CCC5COC6)c(C)c4)ncc3[C@]3(C)COC(C)(C)C[C@H]23)n1 (single isomer, unassigned) [Example 86] |
| 100 to 1000 | CNCc1cccc(N2c3nc(Nc4ccc5c(c4)C(=O)N(C)CC5(C)C)ncc3[C@]3(C)COC(C)(C)C[C@H]23)n1 (single isomer, unassigned) [Example 91] |
| 10 to 100 | CNCc1cccc(N2c3nc(Nc4ccc(N5CCN(C)CC5)cc4)ncc3[C@]3(C)COC(C)(C)C[C@H]23)n1 (single isomer, unassigned) [Example 93] |
| ≥ 1000 | CNCc1cccc(N2c3nc(Nc4ccc([C@@H]5CCC(=O)N5C)nc4)ncc3[C@]3(C)COC(C)(C)C[C@H]23)n1 (single isomer, unassigned) [Example 95] |
| 100 to 1000 | CNCc1cccc(N2c3nc(Nc4ccc([C@H]5CCC(=O)N5C)nc4)ncc3[C@]3(C)COC(C)(C)C[C@H]23)n1 (single isomer, unassigned) [Example 97] |
